Measured values reported in article PMC12648627, “Structural and functional characterization of a metagenomically derived γ‐type carbonic anhydrase and its engineering into a hyperthermostable esterase” (Protein Science : A Publication of the Protein Society, 2025).

Key:
γ-CaCAmut [1] = molecular target: T1, γ-CaCAmut (Caloramator australicus, UniProt G0V3M6, V46E/T67E/G68E/Y159N, form not given); test: spectrophotometric p-nitrophenol release at […] nm; type: biochemical; details: 0.1 M KH2PO4, pH 8.0, 25°C; 0.4-3.5 mM p-NPA; esterase activity
T1 construct: gene CAAU_0066

γ-CaCAmut [2] = molecular target: T1, γ-CaCAmut; details: pNPA as substrate, 25°C; 1 mM inhibitor

T1 sequence (G0V3M6 1-167 G68E/T67E/V46E/Y159N limits assumed): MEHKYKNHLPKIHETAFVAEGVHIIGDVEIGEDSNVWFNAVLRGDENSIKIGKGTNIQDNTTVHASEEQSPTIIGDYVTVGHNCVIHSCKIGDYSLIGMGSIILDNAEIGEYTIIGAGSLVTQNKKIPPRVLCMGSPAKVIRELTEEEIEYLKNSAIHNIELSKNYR

| SMILES | Km (γ-CaCAmut [1]) [µM] | % inhibition at 1 mM (γ-CaCAmut [2]) |
| --- | --- | --- |
| CC(=O)Oc1ccc([N+](=O)[O-])cc1 [p-nitrophenyl acetate] | 960 ± 50 |  |
| Nc1ccc(S(N)(=O)=O)cc1 [sulfanilamide] |  | Inhibition of γ‐CaCAmut by three common diagnostic CA inhibitors (sulfanilamide, azide, and EDTA) |
